In patent US7345073B2, “Method for treating cryptorchidism” (Hormos Medical Ltd., priority 2003, dated 2008):

What was measured:
wild type FVB/N mice [1] = assay: Relative testes weights (testes weight/animal weight), wild type mice; type: in vivo, mouse; details: n = 7, finrozole 10 mg/kg p.o. daily for six weeks, SD 0.0003
Description: (§1) The aromatase inhibitor finrozole {MPV-2213ad (10695U, without purification, Hormos Medical Ltd.} was the test compound. Vehicle (CMC-solution) was used as control substance. CMC-solution was prepared as follows: 0.25 g carboxylmethylcellulosa (CMC) (lot. 939512, Tamro OYJ) was weighed and solubilized in 50 ml of deionized (Milli-Q) water. The solution was prepared once a week and stored at +4° C. The dose level of finrozole 10 mg/kg dose level was used. The vehicle-test/control-solution, which was given to the test animals, was prepared daily as follows: the appropriate amount of finrozole was weighed in a transparent glass mortar. A few drops of vehicle were added and the mixture was thoroughly mixed. After this ⅓ of the final volume of vehicle was added to the mortar and placed into an ultrasonic incubator for five minutes. This procedure was done total of three times to reach the final volume.
(§2) In the experiment there was […] different kind of groups of male mice, ten animals in each group. One control group (wild type FVB/N) received vehicle, as well as the other control (021 line) group. The last groups were treated with finrozole (10 mg/kg).
(§3) The dosing (4 ml solution/kg) of the animals took place p.o. daily for six weeks. On Saturdays, however, double dose of the test compounds was given to animals. On sundays there was no treatment.
(§4) The trial was conducted in total of 39 mice. […]

wild type FVB/N mice [2] = assay: Testes descent (palpation and opening the animal) after six weeks of p.o. treatment, wild type mice; type: in vivo, mouse; details: wild type FVB/N male mice, nine mice; finrozole 10 mg/kg p.o. daily for six weeks
Description: as §1, §2, §3, §4

[3] = test system: Aromatase over expressing mice AROM+ (line 021); assay: Relative testes weights (testes weight/animal weight), AROM+ mice; type: in vivo, mouse; details: AROM+ (021) mice, n = 10; finrozole 10 mg/kg p.o. daily for six weeks; SD 0.0003
Description: as §1
(§5) Aromatase over expressing mice AROM^+ were used in this study. The mice were maintained under standard laboratory conditions at 12:12 light/dark cycle, and received free access to soyfree pelleted food (SDS, Witham, Essex, UK), and tap water.
We have generated a transgenic mouse model bearing the human ubiquitin C promoter/human P450 aromatase fusion gene (AROM^+). […]

[4] = test system: Aromatase over expressing mice AROM+ (line 021); assay: Testes descent (palpation and opening the animal) after six weeks of p.o. treatment, AROM+ mice; type: in vivo, mouse; details: AROM+ (021) male mice, ten mice; finrozole 10 mg/kg p.o. daily for six weeks
Description: as §1, §5
We have generated a transgenic mouse model bearing the human ubiquitin C promoter/human P450 aromatase fusion gene (AROM^+). […] The AROM^+ males present with a multitude of severe structural and functional abnormalities of the reproductive system, such as cryptochidism, dysmorphic semiferous tubules and disrupted spermatogenesis. The males also have small or rudimentary accessory sex glands with abnormal morphology, a prominent prostatic utricle with squamous epithelial metaplasia, and abnormal morphology of ejaculatory duct and vas deferens. In addition, the abdominal wall muscle layer is thin, and the adrenals are enlarged with cortical hyperplasia. […] Some of the disorders in reproductive system, furthenmore, can be explained by the fact that the AROM^+ males are hypo-androgenic. […]

[5] = test system: cryptorchidism (non-descended testes); details: according to one study; cited from earlier work

Molecule: N#Cc1ccc(C(C(O)Cc2ccc(F)cc2)n2cncn2)cc1 (single isomer, unassigned) [finrozole, 1-[1-(4-cyanophenyl)-3-(4-fluorophenyl)-2-hydroxypropyl]-1,2,4-triazole, diasteroisomer a+d]
- Relative testes weights (testes weight/animal weight) (wild type FVB/N mice [1]): 0.0027
- Number of descended testes (wild type FVB/N mice [2]): 18
- Relative testes weights (testes weight/animal weight) [3]: 0.0033
- Number of descended testes [4]: 17
- Number of partly descended testes [4]: 2
- Number of undescended testes [4]: 1

Molecule: LHRH: lutenizing-hormone releasing hormone, hormonal treatment of cryptorchidism (QHWSYGLRPG; Gonadoliberin-1; UniProt P01148 24-33, looked up)
- efficacy in cases of true non-descended testes [5]: ineffective
